How the values were obtained:
human CB2 receptors = human CB2 receptors (Homo sapiens (Human), UniProt P34972); assay: functional cAMP assay, CB2; format: cell-based; details: CHO cells expressing human CB2
Description: (§1) The growth medium was exchanged with Krebs Ringer Bicarbonate buffer with 1 mM IBMX and incubated at 30° C. for 30 min. Compounds were added to a final assay volume of 100 μl and incubated for 30 min at 30° C. Using the cAMP-Nano-TRF detection kit the assay (Roche Diagnostics) was stopped by the addition of 50 μl lysis reagent (Tris, NaCl, 1.5% Triton X100, 2.5% NP40, 10% NaN3) and 50 μl detection solutions (20 μM mAb Alexa700-cAMP 1:1, and 48 μM Ruthenium-2-AHA-cAMP) and shaken for 2 h at room temperature. The time-resolved energy transfer is measured by a TRF reader (Evotec Technologies GmbH), equipped with a ND:YAG laser as excitation source. The plate is measured twice with the excitation at 355 nm and at the emission with a delay of 100 ns and a gate of 100 ns, total exposure time 10 s at 730 (bandwidth 30 nm) or 645 nm (bandwidth 75 nm), respectively.
(§2) EC50 values were determined using Activity Base analysis (ID Business Solution, Limited).

human CB1 receptors = human CB1 receptors (Homo sapiens (Human), UniProt P21554); assay: functional cAMP assay, CB1; format: cell-based; details: CHO cells expressing human CB1
human CB1 receptors, sequence (P21554 whole entry): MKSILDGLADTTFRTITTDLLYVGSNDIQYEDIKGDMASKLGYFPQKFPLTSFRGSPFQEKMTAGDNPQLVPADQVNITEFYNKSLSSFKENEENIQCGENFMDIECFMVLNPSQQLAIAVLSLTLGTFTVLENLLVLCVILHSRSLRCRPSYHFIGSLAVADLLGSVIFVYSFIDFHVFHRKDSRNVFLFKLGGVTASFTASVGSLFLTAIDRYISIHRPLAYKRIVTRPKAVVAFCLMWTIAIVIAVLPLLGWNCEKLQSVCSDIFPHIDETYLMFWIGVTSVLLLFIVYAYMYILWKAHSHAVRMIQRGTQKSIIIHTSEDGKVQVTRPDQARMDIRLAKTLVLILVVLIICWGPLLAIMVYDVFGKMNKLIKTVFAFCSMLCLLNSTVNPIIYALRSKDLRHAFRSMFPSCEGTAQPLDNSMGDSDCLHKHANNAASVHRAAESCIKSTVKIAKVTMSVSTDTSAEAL
Description: as §1, §2

human CB2 receptors, sequence (P34972 whole entry): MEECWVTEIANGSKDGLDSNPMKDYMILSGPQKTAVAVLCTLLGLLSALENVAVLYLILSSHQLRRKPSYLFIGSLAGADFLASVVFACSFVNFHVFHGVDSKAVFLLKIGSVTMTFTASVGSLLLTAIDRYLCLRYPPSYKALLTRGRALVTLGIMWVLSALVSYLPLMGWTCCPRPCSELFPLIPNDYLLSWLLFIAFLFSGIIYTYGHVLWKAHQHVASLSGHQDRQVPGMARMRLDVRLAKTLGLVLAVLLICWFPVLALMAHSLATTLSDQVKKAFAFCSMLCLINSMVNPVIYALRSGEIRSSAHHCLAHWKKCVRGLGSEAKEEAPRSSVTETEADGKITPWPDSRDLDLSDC

Row | Structure (SMILES) | EC50 (human CB2 receptors) [nM] | EC50 (human CB1 receptors) [nM]
1 | CC(C)(C)COc1nc(N2CCC(F)(F)C2)c2ncn(Cc3ccccc3S(C)(=O)=O)c2n1 [Example 126, 6-(3,3-difluoropyrrolidin-1-yl)-2-(2,2-dimethylpropoxy)-9-[(2-methylsulfonylphenyl)methyl]purine] | 24.5 | > 10000
2 | CC(C)(C)c1nc(N2CCC(F)(F)C2)c2ncn(Cc3ccccc3S(C)(=O)=O)c2n1 [Example 18, 2-tert-butyl-6-(3,3-difluoropyrrolidin-1-yl)-9-[(2-methylsulfonylphenyl)methyl]purine] | 3.3 | > 10000
3 | CC(C)(C)c1nc(N2CCC(O)C2)c2ncn(CCC(F)(F)F)c2n1 (stereo not drawn) [Example 45, 1-[2-tert-butyl-9-(3,3,3-trifluoropropyl)purin-6-yl]pyrrolidin-3-ol] | 49.6 | > 10000
4 | CC(C)(C)COc1nc(N2CCC(C)(O)C2)c2ncn(Cc3ncccc3Cl)c2n1 (stereo not drawn) [Example 134, 1-[9-[(3-chloropyridin-2-yl)methyl]-2-(2,2-dimethylpropoxy)purin-6-yl]-3-methylpyrrolidin-3-ol] | 178 | > 10000
5 | CC1(O)CCN(c2nc(NC(C)(C)C)nc3c2ncn3Cc2ccccc2Cl)C1 (stereo not drawn) [Example 120, 1-[2-(tert-butylamino)-9-[(2-chlorophenyl)methyl]purin-6-yl]-3-methylpyrrolidin-3-ol] | 108 | > 10000
6 | Cc1nonc1Cn1cnc2c(N3CCC(C)(O)C3)nc(NC(C)(C)C)nc21 (stereo not drawn) [Example 123, 1-[2-(tert-butylamino)-9-[(4-methyl-1,2,5-oxadiazol-3-yl)methyl]purin-6-yl]-3-methylpyrrolidin-3-ol] | 563 | > 10000
7 | CC(C)(C)c1nc(N2CCC3(COC3)C2)c2ncn(Cc3n[nH]cc3C(F)(F)F)c2n1 [Example 78, 7-[2-tert-butyl-9-[[4-(trifluoromethyl)-1H-pyrazol-3-yl]methyl]purin-6-yl]-2-oxa-7-azaspiro[3.4]octane] | 17.5 | > 10000
8 | CC(C)(C)c1nc(N2CCC3(COC3)C2)c2ncn(Cc3cccc(Cl)c3)c2n1 [Example 57, 7-[2-tert-butyl-9-[(3-chlorophenyl)methyl]purin-6-yl]-2-oxa-7-azaspiro[3.4]octane] | 466 | > 10000
9 | CC(=O)N[C@H]1CCN(c2nc(C(C)(C)C)nc3c2ncn3Cc2ncccc2Cl)C1 [Example 54, N—[(S)-1-[2-tert-butyl-9-[(3-chloropyridin-2-yl)methyl]purin-6-yl]pyrrolidin-3-yl]acetamide] | 388 | > 10000
10 | CC(C)(C)c1nc(N2CCC(F)(F)C2)c2ncn(CCc3cccnc3)c2n1 [Example 23, 2-tert-butyl-6-(3,3-difluoropyrrolidin-1-yl)-9-(2-pyridin-3-ylethyl)purine] | 4.4 | > 10000
11 | CC1(O)CCN(c2nc(C(C)(C)C)nc3c2ncn3Cc2ccccc2C(F)(F)F)C1 (stereo not drawn) [Example 67, 1-[2-tert-butyl-9-[[2-(trifluoromethyl)phenyl]methyl]purin-6-yl]-3-methylpyrrolidin-3-ol] | 9 | > 10000
12 | CC1(O)CCN(c2nc(C(C)(C)C)nc3c2ncn3Cc2c[nH]nc2C(F)(F)F)C1 (stereo not drawn) [Example 84, 1-[2-tert-butyl-9-[[3-(trifluoromethyl)-1H-pyrazol-4-yl]methyl]purin-6-yl]-3-methylpyrrolidin-3-ol] | 79.3 | > 10000
13 | CC(C)(C)Nc1nc(N2CCC(F)(F)C2)c2ncn(CCC(F)(F)F)c2n1 [Example 110, N-tert-butyl-6-(3,3-difluoropyrrolidin-1-yl)-9-(3,3,3-trifluoropropyl)purin-2-amine] | 18.3 | > 10000
14 | CC(C)(C)c1nc(N2CC[C@H](O)C2)c2ncn(Cc3n[nH]cc3C(F)(F)F)c2n1 [Example 100, (3S)-1-[2-tert-butyl-9-[[4-(trifluoromethyl)-1H-pyrazol-3-yl]methyl]purin-6-yl]pyrrolidin-3-ol] | 6.6 | > 10000
15 | CC(C)(C)c1nc(N2CCC3(COC3)C2)c2ncn(Cc3ncccc3Cl)c2n1 [Example 104, 7-[2-tert-butyl-9-[(3-chloropyridin-2-yl)methyl]purin-6-yl]-2-oxa-7-azaspiro[3.4]octane] | 160 | > 10000
16 | CC(C)(C)c1nc(N2CCC3(COC3)C2)c2ncn(Cc3ccc(Cl)cc3)c2n1 [Example 58, 7-[2-tert-butyl-9-[(4-chlorophenyl)methyl]purin-6-yl]-2-oxa-7-azaspiro[3.4]octane] | 506 | > 10000
17 | CC(C)(C)c1nc(N2CCC(F)(F)C2)c2ncn(Cc3ccc(F)cc3Cl)c2n1 [Example 4, 2-tert-butyl-9-[(2-chloro-4-fluorophenyl)methyl]-6-(3,3-difluoropyrrolidin-1-yl)purine] | 3.1 | > 10000

Row | Structure (SMILES) | EC50 (human CB2 receptors) [nM] | EC50 (human CB1 receptors) [nM]
18 | Cc1noc(Cn2cnc3c(N4CCC(F)(F)C4)nc(C(C)(C)C)nc32)n1 [Example 7, 5-[[2-tert-butyl-6-(3,3-difluoropyrrolidin-1-yl)purin-9-yl]methyl]-3-methyl-1,2,4-oxadiazole] | 34.7 | > 10000
19 | CC(C)(C)c1nc(N2CCC(O)C2)c2ncn(Cc3ccccc3S(C)(=O)=O)c2n1 (stereo not drawn) [Example 34, 1-[2-tert-butyl-9-[(2-methylsulfonylphenyl)methyl]purin-6-yl]pyrrolidin-3-ol] | 9 | > 10000
20 | CC(C)(C)c1nc(N2CCC(O)C2)c2ncn(Cc3ccccc3Cl)c2n1 (stereo not drawn) [Example 22, 1-[2-tert-butyl-9-[(2-chlorophenyl)methyl]purin-6-yl]pyrrolidin-3-ol] | 5.7 | > 10000
21 | CC(C)(C)COc1nc(N2CCC(F)(F)C2)c2ncn(Cc3ccccc3C(F)(F)F)c2n1 [Example 125, 6-(3,3-difluoropyrrolidin-1-yl)-2-(2,2-dimethylpropoxy)-9-[[2-(trifluoromethyl)phenyl]methyl]purine] | 2.6 | > 10000
22 | CC(C)(C)c1nc(N2CCC3(COC3)C2)c2ncn(Cc3ccccc3C(F)(F)F)c2n1 [Example 59, 7-[2-tert-butyl-9-[[2-(trifluoromethyl)phenyl]methyl]purin-6-yl]-2-oxa-7-azaspiro[3.4]octane] | 16.7 | > 10000
23 | CC(=O)N[C@H]1CCN(c2nc(C(C)(C)C)nc3c2ncn3Cc2c[nH]nc2C(F)(F)F)C1 [Example 75, N—[(S)-1-[2-tert-butyl-9-[[3-(trifluoromethyl)-1H-pyrazol-4-yl]methyl]purin-6-yl]pyrrolidin-3-yl]acetamide] | 280 | > 10000
24 | Cc1nonc1Cn1cnc2c(N3CCC(C)(O)C3)nc(OCC(C)(C)C)nc21 (stereo not drawn) [Example 135, 1-[2-(2,2-dimethylpropoxy)-9-[(4-methyl-1,2,5-oxadiazol-3-yl)methyl]purin-6-yl]-3-methylpyrrolidin-3-ol] | 30.7 | > 10000
25 | CC(C)(C)COc1nc(N2CC3(COC3)C2)c2ncn(Cc3ccccc3Cl)c2n1 [Example 143, 6-[9-[(2-chlorophenyl)methyl]-2-(2,2-dimethylpropoxy)purin-6-yl]-2-oxa-6-azaspiro[3.3]heptane] | 268 | > 10000
26 | CC(C)(C)Nc1nc(N2CC[C@H](O)C2)c2ncn(Cc3ncccc3Cl)c2n1 [Example 118, (3S)-1-[2-(tert-butylamino)-9-[(3-chloropyridin-2-yl)methyl]purin-6-yl]pyrrolidin-3-ol] | 152 | > 10000
27 | COCCn1cnc2c(N3CC(F)(F)C(F)(F)C3)nc(C(C)(C)C)nc21 [Example 83, 2-tert-butyl-9-(2-methoxyethyl)-6-(3,3,4,4-tetrafluoropyrrolidin-1-yl)purine] | 64.6 | > 10000
28 | CC1(O)CCN(c2nc(C(C)(C)C)nc3c2ncn3Cc2n[nH]cc2C(F)(F)F)C1 (stereo not drawn) [Example 85, 1-[2-tert-butyl-9-[[4-(trifluoromethyl)-1H-pyrazol-3-yl]methyl]purin-6-yl]-3-methylpyrrolidin-3-ol] | 22.1 | > 10000
29 | CC(C)(C)c1nc(N2CC[C@H](O)C2)c2ncn(Cc3c[nH]nc3C(F)(F)F)c2n1 [Example 98, (3S)-1-[2-tert-butyl-9-[[3-(trifluoromethyl)-1H-pyrazol-4-yl]methyl]purin-6-yl]pyrrolidin-3-ol] | 22.3 | > 10000
30 | Cn1nnnc1Cn1cnc2c(N3CCC(F)(F)C3)nc(NC(C)(C)C)nc21 [Example 113, N-tert-butyl-6-(3,3-difluoropyrrolidin-1-yl)-9-[(1-methyltetrazol-5-yl)methyl]purin-2-amine] | 249 | > 10000
31 | Cn1nnnc1Cn1cnc2c(N3CCC(F)(F)C3)nc(C(C)(C)C)nc21 [Example 14, 2-tert-butyl-6-(3,3-difluoropyrrolidin-1-yl)-9-[(1-methyltetrazol-5-yl)methyl]purine] | 23 | > 10000
32 | Cc1nonc1Cn1cnc2c(N3CCC[C@@H]3CO)nc(C(C)(C)C)nc21 [Example 145, [(2R)-1-[2-tert-butyl-9-[(4-methyl-1,2,5-oxadiazol-3-yl)methyl]purin-6-yl]pyrrolidin-2-yl]methanol] | 6.1 | > 10000
33 | CC(C)(C)c1nc(N2CCC(O)C2)c2ncn(Cc3ccc(F)cc3Cl)c2n1 (stereo not drawn) [Example 42, 1-[2-tert-butyl-9-[(2-chloro-4-fluorophenyl)methyl]purin-6-yl]pyrrolidin-3-ol] | 3.7 | > 10000
